Test results as given in patent US9222070B2, “Cell therapy method for the treatment of tumors” (Janssen Pharmaceuticals, Inc., priority 2001, dated 2015).

Assays:
[1] = system: CD8 cells; assay: Ex vivo CTL generation with peptide-loaded Drosophila cells; format: cell-based, human; settings: for frequency of CTL generation: normal donors, summary of Table 7; for CTL activity elicited by single epitope on Drosophila cells: donor #60, peptide added alone, lysis on JY cells, vs control HBc peptide
From the text: Human CTLs from healthy subjects were immunized in vitro against tyrosinase, MART-1 and gp100 when loaded separately on Drosophila APCs and evaluated for lysis on JY cells (FIG. 4). […] Melanoma-specific CTLs from healthy subjects were induced using the full stimulation/re-stimulation protocol and tested for their ability to lyse Jurkat cells loaded with each of the of the peptides used in the stimulations (FIG. 5). […]. […] One in which the multiple peptides were loaded onto individual Drosophila cells and mixed before the primary stimulation (combo mix), or the multiple peptides were mixed and then loaded onto the Drosophila APCs (combo load).
All of the peptides were synthesized, given an identification number (PRI#) and evaluated for the ability to generate CTLs ex vivo utilizing the same method we employed for melanoma-associated, T cell peptide epitopes. CD8 cells were isolated from normal donors to determine the ability to routinely generate CTLs ex vivo with Drosophila cells loaded with known CTL peptide epitopes.
Standard ^51Cr-release assays were performed to determine CTL effector cell recognition of melanoma-associated peptide epitopes loaded onto T2 cells. […] 0.1mCi of ^51Cr was added and incubated at 37° C. in a water bath. […] The cells were pulsed with the appropriate peptide(s) at 20 μg/mL for thirty minutes. 50 μL was added to each 96-well plate each containing CD8 effector cells at 10, 2, 0.4, and 0.08×10^6/mL, which was incubated at 37° C. for six hours, spun and harvested for supernatant.
To extend the ability to raise CTLs to other tumor antigens present in a wide variety of other cancers we have selected published and novel sequences to tumor antigens common to several different tumor types.

[2] = biological target: T1, HLA-A2.1 molecule (Homo sapiens, UniProt P04439, D140Y/D185E/D98H/E176V/E277Q/G131W/G231S/I119V/I121R/I166T/I218V/L300P/L318F/N151K/N90K/P208A/P217A/Q86G/Q94H/R138H/R169H/T345S); assay: Peptide binding on Drosophila cells expressing HLA-A2.1
T1 construct: expressed in transfected cells; host or cells: Drosophila melanogaster Schneider S2 cells (ATCC CRL 10974), pRmHa-3 vector, CuSO4 induction

[3] = system: HTB-77/A2.1 cell line; assay: 51Cr-release lysis after IFNγ pretreatment; format: cell-based, human; settings: 500 U/ml for twenty-four hours prior to 51Cr-release assay
Protocol: (§1) The cells were treated with 500 U/ml of IFNγ (specific activity of 25 ng/ml) for twenty-four hours prior to the initiation of the ^51Cr-release assay. […] To determine the effect of this dose of IFNg on the surface expression of both HLA-A2.1 and HER-2, a FACS analysis was performed to determine the levels of these molecules after both twenty-four and forty-eight hours of induction. FIG. 18, Panels A and B depict the FACS analysis results. […] This would explain why there is an enhance killing of the HTB-77/A2.1 cells in the presence of IFNγ. An up-regulation of this particular molecule would result in more efficient processing of the HER-2 molecule, allowing better presentation of the peptides of interest

[4] = system: TAP-1; assay: Microarray DNA chip analysis of mRNA levels after IFNγ induction; format: cell-based, human; settings: HTB-77/A2.1 cells after IFNγ induction
[5] = system: HLA-A2.1; assay: FACS analysis of surface expression after IFNγ induction; format: cell-based, human; settings: HLA-A2.1 transfected HTB-77 cells, similar treatment protocol
Protocol: as §1

[6] = system: HER-2; assay: as above; format: cell-based, human
Protocol: as §1

[7] = system: breast adenocarcinoma cell line (ATCC; HTB-131) transfected with HLA-A2.1; assay: Tumor lysis by HER-2 peptide-specific CTL effectors; format: cell-based, human; settings: cell line transfected with HLA-A2.1
[8] = system: CD8+ T cells; assay: HLA-A2.1 tetramer staining of HER-2 peptide-specific CTLs; format: cell-based, human; settings: donor 262, after four-week ex vivo stimulation protocol
Protocol: The cells were labeled with FITC- or PE conjugated monoclonal antibodies by incubation at 4° C. for 30 minutes in FACS buffer (1% BSA, 0.02% NaN3 in PBS), followed by a wash in the same buffer. Cells were fixed in 0.5% formaldehyde prior to data acquisition and analysis on a FACScan flow cytometer (Becton Dickinson) with its CellQuest software. Nonspecific staining was measured with the same secondary antibody used to label purified primary antibodies, or an isotype-matched control when the primary antibodies were directly labeled. Tetrameric staining was performed with HLA-A2.1 specific HIVgag tetrameric molecules (Beckman Coulter) harboring the sequence [sequence] […] PE-labeled tetrameric HLA-A2.1-peptide complexes were used in conjunction with fluorescein isothiocyanate (FITC)-labeled anti-human CD8a (BD PharMagin) monoclonal antibodies to stain epitope-specific CD8+ T cells as described in package insert. Samples were analyzed by two-color flow cytometry on a Becton Dickinson FACScan, and gated CD8+ T cells were examined for staining with tetrameric HLA-A2.1-peptide complexes.

CLTSTVQLV [Peptide 826] was tested, and the “frequency of CTL generation” value [1] was “highest frequency of CTL generation”.
For ELVSEFSRM [Peptide 863], the “frequency of CTL generation” value [1] was “highest frequency of CTL generation” and the “binding to the HLA-A2.1 molecule on transfected Drosophila cells” value [2] was “weak to moderate binders”.
In the case of “IFNγ: interferon gamma used to pretreat tumor cell lines at 500 U/ml”, the “lysis of HLA-A2.1 transfected cell line” value [3] is reported as “enhanced lysis”, the “level of TAP-1 expression (mRNA); also HLA-DM and -DR, Cathepsin S and D and Caspase 5” value [4] is reported as “increase in the level of TAP-1 expression” and the HLA-A2.1 surface expression [5] is reported as “neither HER-2 nor HLA-A2.1 demonstrated an increase”. For the same substance, the HER-2 surface expression ([6]; HLA-A2.1 transfected HTB-77 cells, similar treatment protocol) was “neither HER-2 nor HLA-A2.1 demonstrated an increase” and the HER-2 surface expression ([6]; HTB-77 cells, twenty-four and forty-eight hours after induction) was “no enhancement”.
With ITDQVPFSV [Peptide 817] the “CTL activity elicited by single epitope on Drosophila cells” value [1] was “CTL activity was elicited”.
For VMAGVGSPYV [Peptide 861], the “frequency of CTL generation” value [1] was “highest frequency of CTL generation”, the “binding to the HLA-A2.1 molecule on transfected Drosophila cells” value [2] was “weak to moderate binders” and the “lysis of tumor cell line by CTLs specific for the peptide” value [7] was “could lysis this tumor cell line”. The “peptide-specific CTLs, tetramer-positive” value [8] was 15.1%.
YMNGTMSQV [Peptide 689] was tested, and the “CTL activity elicited by single epitope on Drosophila cells” value [1] was “CTL activity was elicited”.
